Reference: ChEMBL document CHEMBL4270599, “Synthesis of a 3'-C-ethynyl-β-d-ribofuranose purine nucleoside library: Discovery of C7-deazapurine analogs as potent antiproliferative nucleosides” (Eur J Med Chem, 2018)

Experiments:
Assay type in all cases: functional
[1] = system: ACHN; experiment: Growth inhibition of human ACHN cells assessed as cell growth at 10^-7 M incubated for 48 hrs by sulforhodamine B assay relative to control; conditions: read-out: Activity
[2] = system: ACHN; experiment: Growth inhibition of human ACHN cells assessed as cell growth at 10^-6 M incubated for 48 hrs by sulforhodamine B assay relative to control; conditions: read-out: Activity
[3] = system: U-251; experiment: Growth inhibition of human U251 cells assessed as cell growth at 10^-7 M incubated for 48 hrs by sulforhodamine B assay relative to control; conditions: U-251, 48 h, read-out: Activity
[4] = system: DU-145; experiment: Growth inhibition of human DU145 cells assessed as cell growth at 10^-5 M incubated for 48 hrs by sulforhodamine B assay relative to control; conditions: DU-145, 48 h, read-out: Activity
[5] = system: Hs-578T; experiment: Growth inhibition of human Hs 578T cells assessed as cell growth at 10^-6 M incubated for 48 hrs by sulforhodamine B assay relative to control; conditions: read-out: Activity
[6] = system: A549; experiment: Cytotoxicity against human A549 cells after 48 hrs by SRB assay; conditions: A549, 48 h
[7] = system: OVCAR-5; experiment: Growth inhibition of human OVCAR5 cells assessed as cell growth at 10^-7 M incubated for 48 hrs by sulforhodamine B assay relative to control; conditions: OVCAR-5, 48 h, read-out: Activity
[8] = system: RPMI-8226; experiment: Growth inhibition of human RPMI8226 cells assessed as cell growth at 10^-7 M incubated for 48 hrs by sulforhodamine B assay relative to control; conditions: RPMI-8226, 48 h, read-out: Activity
[9] = system: SK-MEL-28; experiment: Cytotoxicity against human SK-MEL-28 cells after 48 hrs by SRB assay; conditions: SK-MEL-28, 48 h
[10] = system: MOLT-4; experiment: Growth inhibition of human MOLT4 cells assessed as cell growth at 10^-7 M incubated for 48 hrs by sulforhodamine B assay relative to control; conditions: MOLT-4, 48 h, read-out: Activity
[11] = system: Malme-3M; experiment: Cytotoxicity against human MALME-3M cells after 48 hrs by SRB assay
[12] = system: SK-MEL-5; experiment: Growth inhibition of human SK-MEL-5 cells assessed as cell growth at 10^-8 M incubated for 48 hrs by sulforhodamine B assay relative to control; conditions: SK-MEL-5, 48 h, read-out: Activity
[13] = system: OVCAR-4; experiment: Growth inhibition of human OVCAR4 cells assessed as cell growth at 10^-8 M incubated for 48 hrs by sulforhodamine B assay relative to control; conditions: OVCAR-4, 48 h, read-out: Activity
[14] = system: K562; experiment: Growth inhibition of human K562 cells assessed as cell growth at 10^-8 M incubated for 48 hrs by sulforhodamine B assay relative to control; conditions: K562, 48 h, read-out: Activity
[15] = system: MDA-MB-468; experiment: Cytotoxicity against human MDA-MB-468 cells after 48 hrs by SRB assay; conditions: MDA-MB-468, 48 h
[16] = system: SNB-19; experiment: Growth inhibition of human SNB19 cells assessed as cell growth at 10^-6 M incubated for 48 hrs by sulforhodamine B assay relative to control; conditions: SNB-19, 48 h, read-out: Activity
[17] = system: NCI-H23; experiment: Cytotoxicity against human NCI-H23 cells after 48 hrs by SRB assay; conditions: NCI-H23, 48 h
[18] = system: SR; experiment: Growth inhibition of human SR cells assessed as cell growth at 10^-6 M incubated for 48 hrs by sulforhodamine B assay relative to control; conditions: read-out: Activity
[19] = system: COLO 205; experiment: Growth inhibition of human COLO205 cells assessed as cell growth at 10^-8 M incubated for 48 hrs by sulforhodamine B assay relative to control; conditions: COLO 205, 48 h, read-out: Activity
[20] = system: UACC-62; experiment: Growth inhibition of human UACC62 cells assessed as cell growth at 10^-5 M incubated for 48 hrs by sulforhodamine B assay relative to control; conditions: UACC-62, 48 h, read-out: Activity
[21] = system: HOP-62; experiment: Cytotoxicity against human HOP62 cells after 48 hrs by SRB assay; conditions: HOP-62, 48 h
[22] = system: K562; experiment: Growth inhibition of human K562 cells assessed as cell growth at 10^-7 M incubated for 48 hrs by sulforhodamine B assay relative to control; conditions: K562, 48 h, read-out: Activity
[23] = system: HCC 2998; experiment: Cytotoxicity against human HCC2998 cells after 48 hrs by SRB assay; conditions: HCC 2998, 48 h
[24] = system: NCI-H322M; experiment: Growth inhibition of human NCI-H322M cells assessed as cell growth at 10^-7 M incubated for 48 hrs by sulforhodamine B assay relative to control; conditions: read-out: Activity
[25] = system: SF-268; experiment: Growth inhibition of human SF268 cells assessed as cell growth at 10^-5 M incubated for 48 hrs by sulforhodamine B assay relative to control; conditions: SF-268, 48 h, read-out: Activity
[26] = system: OVCAR-3; experiment: Growth inhibition of human OVCAR3 cells assessed as cell growth at 10^-8 M incubated for 48 hrs by sulforhodamine B assay relative to control; conditions: OVCAR-3, 48 h, read-out: Activity
[27] = system: LOX IMVI; experiment: Growth inhibition of human LOXIMVI cells assessed as cell growth at 10^-7 M incubated for 48 hrs by sulforhodamine B assay relative to control; conditions: read-out: Activity
[28] = system: MDA-MB-231; experiment: Cytotoxicity against human MDA-MB-231 cells after 48 hrs by SRB assay; conditions: MDA-MB-231, 48 h
[29] = read-out: pLC50 (the source's name) (converted)
[30] = read-out: LC50 (the source's name)

SMILES: C#C[C@@]1(O)[C@@H](CO)O[C@@H](n2cc(Br)c3c(N)ncnc32)[C@@H]1O
- growth at 0.1 µM [1]: 75%
- growth at 1 µM [2]: 8%
- growth at 0.1 µM [3]: 2 to 11%
- growth at 10 µM [4]: 7 to 10%
- growth at 1 µM [5]: 6 to 57%
- GI50 ([6]; read-out: GI50): 0.09 to 0.283 µM
- CC50 [6, 29]: > 100 µM
- growth at 0.1 µM [7]: 62 to 97%
- growth at 0.1 µM [8]: 41 to 83%
- GI50 ([9]; read-out: GI50): 3.05 to 4.37 µM
- CC50 [9, 30]: > 100 µM
- TGI ([9]; read-out: TGI): 30.2 to 48.1 µM
- growth at 0.1 µM [10]: 44 to 66%
- GI50 ([11]; read-out: GI50): 0.627 to 0.799 µM
- CC50 [11, 30]: 81.9 to 82.6 µM
- TGI ([11]; read-out: TGI): 12.2 to 14.1 µM
- growth at 0.01 µM [12]: 93 to 96%
- growth at 0.01 µM [13]: 96 to 100%
- growth at 0.01 µM [14]: 87 to 99%
- GI50 ([15]; read-out: GI50): 0.115 to 0.219 µM
- TGI ([15]; read-out: TGI): 0.352 to 0.637 µM
- CC50 [15, 29]: 1.91 µM
- growth at 1 µM [16]: 6%
- GI50 ([17]; read-out: GI50): 0.162 to 0.225 µM
- TGI ([17]; read-out: TGI): 1.93 to 4.21 µM
- CC50 [17, 29]: > 100 µM
- growth at 1 µM [18]: 7 to 9%
- growth at 0.01 µM [19]: 95 to 97%
- growth at 10 µM [20]: 4 to 8%
- GI50 ([21]; read-out: GI50): 0.211 to 0.427 µM
- CC50 [21, 30]: > 100 µM
- TGI ([21]; read-out: TGI): 4.76 to 100 µM
- growth at 0.1 µM [22]: 27 to 48%
- GI50 ([23]; read-out: GI50): 0.169 to 0.24 µM
- TGI ([23]; read-out: TGI): 0.525 to 1.25 µM
- CC50 [23, 29]: > 100 µM
- growth at 0.1 µM [24]: 73 to 76%
- growth at 10 µM [25]: 7 to 11%
- growth at 0.01 µM [26]: 99 to 101%
- growth at 0.1 µM [27]: 20 to 52%
- GI50 ([28]; read-out: GI50): 0.056 to 0.215 µM
- CC50 [28, 30]: > 100 µM
- TGI ([28]; read-out: TGI): > 100 µM
- TGI ([28]; read-out: pTGI (converted)): > 100 µM
